Data reported in patent US20160303251A1, “CONJUGATES OF GARFTASE INHIBITORS” (ENDOCYTE, INC., priority 2015, published 2016).

How the values were obtained:
KB cells = assay: In vitro activity in KB cells (3H-thymidine incorporation); format: cell-based, human; details: 2 hr pulse at 37° C., chase up to 70 hr
Procedure: Cells were seeded in 24-well Falcon plates and allowed to form nearly confluent monolayers overnight. After one rinse with 1 mL of fresh FFRPMI/HIFCS, each well received 1 mL of medium containing increasing concentrations of test agent (3 wells per sample). Cells were pulsed with targeted agents for 2 hr at 37° C., rinsed 4 times with 0.5 mL of medium, and then chased in 1 mL of fresh medium up to 70 hr. Cells were treated with non-targeted agent ECO347 for a continuous 72 h. Spent medium was aspirated from all wells and replaced with fresh medium containing 5 μCi/mL ^3H-thymidine. After a further 2 hr 37° C. incubation, cells were washed 3 times with 0.5 mL of PBS and then treated with 0.5 mL of ice-cold 5% trichloroacetic acid per well. After 15 min, the trichloroacetic acid. was aspirated and the cell material solubilized by the addition of 0.5 mL of 0.25 N sodium hydroxide for 15 min. Four hundred and fifty microliters of each solubilized sample were transferred to scintillation vials containing 3 mL of Ecolume scintillation cocktail and then counted in a liquid scintillation counter. Final tabulated results were expressed as the percentage of ^3H-thymidine incorporation relative to untreated controls and IC50 values calculated using Graphpad Prism software.

subcutaneous KB tumors = assay: Antitumor activity in KB tumor model; format: in vivo, mice; details: for PR, complete responses or cure: 1 μmol/kg
Procedure: METHOD. Inhibition of Tumor Growth in Mice. Four to seven week-old mice (Balb/c or nu/nu strains) are purchased from Harlan Sprague Dawley, Inc. (Indianapolis, Ind.). […] For tumor cell inoculation, 1×10^6 M109 cells (a syngeneic lung carcinoma) in Balb/c strain, or 1×10^6 KB cells in nu/nu strain, in 100 μL are injected in the subcutis of the dorsal medial area (right axilla). Tumors are measured in two perpendicular directions every 2-3 days using a caliper, and their volumes are calculated as 0.5×L×W^2, where L=measurement of longest axis in mm and W=measurement of axis perpendicular to L in mm.
Dosing is initiated when the s.c. tumors have an average volume between 50-100 […] (t0), typically 8 days post tumor inoculation (PTI) for KB tumors, and 11 days PTI for M109 tumors. Test animals (5/group) are injected i.v., generally three times a week (TIW), for 3 weeks with varying doses, such as with 1 μmol/kg to 5 μmol/kg, of the conjugate or with an equivalent dose volume of PBS (control), unless otherwise indicated. Dosing solutions are prepared fresh each day in PBS and administered through the lateral tail vein of the mice.
Female Balb/c nu/nu mice were fed ad libitum with folate-deficient chow (Harlan diet #TD01013) for the duration of the experiment. KB tumor cells were inoculated subcutaneously at the right flank of each mouse. Mice were dosed after the tumors have reached a range of 107-152 mm^3 through the lateral tail vein under sterile conditions in a volume of 200 μL of phosphate-buffered saline (PBS).
Growth of each s.c. tumor was followed by measuring the tumor two times per week. Tumors were measured in two perpendicular directions using Vernier calipers, and their volumes were calculated as 0.5×L×W^2, where L=measurement of longest axis in mm and W=measurement of axis perpendicular to L in mm.

[1] = 0.5 μmol/kg (EC1953 printed 0.5 mol/kg), TIW×2 wk, n=5
[2] = 1 μmol/kg (EC1953, EC 2014 printed 1 mol/kg), TIW×2 wk, n=5
[3] = mice having subcutaneous KB tumors

Nc1nc2[nH]c(CCCc3ccc(C(=O)N[C@@H](CCC(=O)O)C(=O)O)s3)cc2c(=O)[nH]1 [AG94, reference compound]
IC50 (KB cells; Homo sapiens): 2.5 nM
PR, complete responses or cure (subcutaneous KB tumors; TIW×2 wk, n=5): none of the treatment groups showed a PR, complete responses, or cure

Nc1nc2[nH]c(CCCCCCCC(=O)N[C@@H](CCC(=O)O)C(=O)O)cc2c(=O)[nH]1 [AG147, reference compound]
IC50 (KB cells; Homo sapiens): 1.2 nM

CCCC(=O)OCN(C(=O)[C@@H](NC(=O)[C@H]1CCCCN1C)C(C)CC)[C@H](C[C@@H](OC(C)=O)c1nc(C(=O)N[C@@H](Cc2ccc(O)cc2)C[C@H](C)C(=O)NNC(=O)OCCSSCCC(=O)N[C@@H](CCC(=O)NC[C@H](O)[C@@H](O)[C@H](O)[C@H](O)CO)C(=O)N[C@@H](CCC(=O)O)C(=O)N[C@@H](CCC(=O)NC[C@H](O)[C@@H](O)[C@H](O)[C@H](O)CO)C(=O)N[C@@H](CCC(=O)O)C(=O)N[C@@H](CCC(=O)NC[C@H](O)[C@@H](O)[C@H](O)[C@H](O)CO)C(=O)N[C@@H](CSSCCOC(=O)CC[C@H](NC(=O)c2ccc(CCCc3cc4c(=O)[nH]c(N)nc4[nH]3)s2)C(=O)O)C(=O)O)cs1)C(C)C (some centres unmarked) [EC1953]
IC50 (KB cells): 0.4 nM
CR (complete responses) of {PR, CR, cure} (subcutaneous KB tumors; [1]): 1
PR (partial responses) of {PR, CR, cure} (subcutaneous KB tumors; [1]): 3
cure of {PR, CR, cure} (subcutaneous KB tumors; [2]): 5
cure of {PR, CR, cure} (subcutaneous KB tumors; 2 umol/kg, q5d×2 wk (independent dosing protocol)): 5
cure of {PR, CR, cure} (subcutaneous KB tumors; 2 μmol/kg, single dose, n=5): 2
cures, observation period extended for 90 days (subcutaneous KB tumors; 1 mol/kg (so in the source), TIW×2 wk): 5/5
cures, observation period extended for 90 days (subcutaneous KB tumors; 2 mol/kg (so in the source), TIW×2 wk): 5/5
cure of {PR, CR, cure} (subcutaneous KB tumors; 2 mol/kg (so in the source), TIW×2 wk, n=5): 5
dose response (subcutaneous KB tumors; [3]): shows a dose response
efficacy compared to comparator (subcutaneous KB tumors; [3]): more efficacious than the comparator folate-tubulysin conjugate

CCCC(=O)OCN(C(=O)[C@@H](NC(=O)[C@H]1CCCCN1C)C(C)CC)[C@H](C[C@@H](OC(C)=O)c1nc(C(=O)N[C@@H](Cc2ccc(O)cc2)C[C@H](C)C(=O)NNC(=O)OCCSSCCC(=O)N[C@@H](CCC(=O)NC[C@H](O)[C@@H](O)[C@H](O)[C@H](O)CO)C(=O)N[C@@H](CCC(=O)O)C(=O)N[C@@H](CCC(=O)NC[C@H](O)[C@@H](O)[C@H](O)[C@H](O)CO)C(=O)N[C@@H](CCC(=O)O)C(=O)N[C@@H](CCC(=O)NC[C@H](O)[C@@H](O)[C@H](O)[C@H](O)CO)C(=O)N[C@@H](CSSCCOC(=O)CC[C@H](NC(=O)CCCCCCCc2cc3c(=O)[nH]c(N)nc3[nH]2)C(=O)O)C(=O)O)cs1)C(C)C (some centres unmarked) [EC2014]
IC50 (KB cells): 0.34 nM
cure of {PR, CR, cure} (subcutaneous KB tumors; [2]): 5

tubulysin B-monohydrazide [reference compound]
PR, complete responses or cure (subcutaneous KB tumors; TIW×2 wk, n=5): none of the treatment groups showed a PR, complete responses, or cure
